Assay results from patent US5158952A, “3-[2-[4-(6-fluoro-1,2-benzisoxozol-3-yl)-1-piperidinyl]ethyl]-6,7,8,9 tetrahydro-9-hydroxy-2-methyl-4H-pyrido [1,2-a]pyrimidin-4-one, compositions and method of use” (Janssen Pharmaceutica N.V., priority 1989, dated 1992).

Legend:
Assay type in all cases: in vivo
dopamine [1] = experiment: combined apomorphine (APO), tryptamine (TRY) and norepinephrine (NOR) test in rats: apomorphine; conditions: for ED50: Rattus norvegicus
Text: (§1) The antipsychotic activity of the subject compounds is evidenced by the experimental data obtained in at least one of two different test procedures, viz. the combined apomorphine (APO), tryptamine (TRY) and norepinephrine (NOR) test in rats, and the apomorphine test in dogs. Said combined apomorphine, tryptamine and norepinephrine test is described in Ach. int. Pharmacodyn., 227, 238-253 (1977) and provides an empirical evaluation of the relative specificity with which drugs may effect particular neurotransmitter systems centrally (CNS) as well as peripherally. […] Said apomorphine test in dogs is described in Arzneim.-Forsch. (Drug Res.), 9, 765-767 (1959) and provides a measure of the duration of action of the tested compounds.

serotonin [2] = experiment: combined APO, TRY, NOR test in rats: tryptamine hyperaemia (peripheral); conditions: for ED50: Rattus norvegicus
Text: as §1

serotonin [3] = experiment: combined APO, TRY, NOR test in rats: tryptamine convulsions (central); conditions: for ED50: Rattus norvegicus
Text: as §1

norepinephrine = experiment: combined APO, TRY, NOR test in rats: norepinephrine; conditions: for ED50: Rattus norvegicus
Text: as §1

dopamine [4] = experiment: apomorphine test in dogs (duration of action); conditions: for (APO)-dog test, ED50, 4 hr: 240 min; for (APO)-dog test, ED50, 16 hr: 960 min; for ED50: Canis lupus familiaris
Text: The compounds of formula (I) show the additional advantage of being eliminated rather slowly from the body and thus of being long acting. This can be evidenced, for example, by measuring the plasma levels after oral administration to dogs and by the long acting antiemetic effect exerted by the present compounds on dogs challenged with the dopamine agonist apomorphine. Especially the compounds of formula (I) wherein R^3 is a higher alkylcarbonyloxy radical have a long duration of action. […] Consequently, the present compounds allow for a more efficient therapy: the slow elimination facilitates maintaining a stable plasma concentration at a non-toxic, effective level and the reduction in the number of administrations may be expected to result in better compliance of the subject to be treated with the prescribed medication.
as §1

[5] = 1 h, read-out: (APO)-dog test, ED50, 1 hr

| SMILES | ED50 (dopamine [1]) | (TRY)-hyperaemia ED50 (serotonin [2]) | (TRY)-convulsions ED50 (serotonin [3]) | ED50 (norepinephrine) | (APO)-dog test, ED50, 4 hr (dopamine [4]) | (APO)-dog test, ED50, 16 hr (dopamine [4]) | ED50 (dopamine [4]; [5]) | (APO) ED50 (dopamine [1]) | (NOR) ED50 (norepinephrine) | (APO)-dog test, ED50, 1 hr (dopamine [4]; 1 hr, 60 min) | ED50 (serotonin [2]) | ED50 (serotonin [3]) | ED50 (dopamine [4]; 4 h, read-out: (APO)-dog test, ED50, 4 hr) | ED50 (dopamine [4]; 16 h, read-out: (APO)-dog test, ED50, 16 hr) |
| --- | --- | --- | --- | --- | --- | --- | --- | --- | --- | --- | --- | --- | --- | --- |
| Cc1nc2n(c(=O)c1CCN1CCC(c3noc4cc(F)ccc34)CC1)CCCC2O (single isomer, unassigned; (+)) [Compound 2, (+)-3-[2-[4-(6-fluoro-1,2-benzisoxazol-3-yl)-1-piperidinyl]ethyl]-6,7,8,9-tetrahydro-9-hydroxy-2-methyl-4H-pyrido[1,2-a]-pyrimidin-4-one] | 0.31 mg/kg | 0.00031 mg/kg | 0.08 mg/kg | 1.25 mg/kg | 0.03 mg/kg | 0.06 mg/kg | 0.015 mg/kg |  |  |  |  |  |  |  |
| Cc1nc2n(c(=O)c1CCN1CCC(c3noc4cc(F)ccc34)CC1)CCCC2O (single isomer, unassigned; (-)) [Compound 3, (-)-3-[2-[4-(6-fluoro-1,2-benzisoxazol-3-yl)-1-piperidinyl]-ethyl]-6,7,8,9-tetrahydro-9-hydroxy-2-methyl-4H-pyrido[1,2-a]-pyrimidin-4-one] |  | 0.00063 mg/kg | 0.31 mg/kg |  | 0.007 mg/kg | 0.015 mg/kg |  | 0.31 mg/kg | 0.63 mg/kg | 0.008 mg/kg |  |  |  |  |
| Cc1nc2n(c(=O)c1CCN1CCC(c3noc4cc(F)ccc34)CC1)CCCC2O (stereo not drawn) [Compound 1, 3-[2-[4-(6-fluoro-1,2-benzisoxazol-3-yl)-1-piperidinyl]ethyl]-6,7,8,9-tetrahydro-9-hydroxy-2-methyl-4H-pyrido[1,2-a]pyrimidin4-one] | 0.25 mg/kg |  |  | 0.08 mg/kg |  |  | 0.015 mg/kg |  |  |  | 0.002 mg/kg | 0.31 mg/kg | 0.015 mg/kg | 0.015 mg/kg |
| CC(=O)OC1CCCn2c1nc(C)c(CCN1CCC(c3noc4cc(F)ccc34)CC1)c2=O (stereo not drawn) [Compound 4, 3-[2-[4-(6-fluoro-1,2-benzisoxazol-3-yl)-1-piperidinyl]ethyl]-6,7,8,9-tetrahydro-2-methyl-4-oxo-4H-pyrido[1,2-a]pyrimidin-9-ol acetate(ester)] | 0.31 mg/kg |  |  |  |  |  | 0.015 mg/kg |  |  |  | 0.00031 mg/kg | 0.08 mg/kg |  |  |
| CCCC(=O)OC1CCCn2c1nc(C)c(CCN1CCC(c3noc4cc(F)ccc34)CC1)c2=O (stereo not drawn) [Compound 5, [3-[2-[4-(6-fluoro-1,2-benzisoxazol-3-yl)-1-piperidinyl]ethyl]-6,7,8,9-tetrahydro-2-methyl-4-oxo-4H-pyrido[1,2-a]pyrimidin-9-yl]butanoate] | 0.31 mg/kg |  |  | 0.16 mg/kg |  |  | 0.008 mg/kg |  |  |  | 0.00125 mg/kg | 0.31 mg/kg |  |  |
